Data as given in patent US20190247376A1, “NICOTINIC ACETYLCHOLINE RECEPTOR AGONIST ATTENUATES ILC2-DEPENDENT AIRWAY HYPERREACTIVITY” (University of Southern California, priority 2016, published 2019).

Assays:
[1] = cited from earlier work
lung ILC2s = experiment: Flow cytometry of proliferation, transcription factor and signalling markers in lung ILC2s; type: cell-based, mouse; conditions: BALB/cByJ mice, rm-IL-33 0.5 μg, agonist 125 μg, three consecutive days
Text: FIGS. 5A-5F: Cholinergic signal attenuates ILC2 proliferation and GATA3 expression. (FIG. 5A) Mean fluorescence intensity of Ki67 and percentage of Ki67+ cells in isolated lung ILC2s, stimulated with IL-33 in the absence and presence of α7nAChR. (FIG. 5B) Mean fluorescence intensity of GATA3 in isolated lung ILC2s, stimulated with IL-33 in the absence and presence of α7nAChR. One representative experiment of two is shown (n=5; Student's t test *, p<0.05; **, p<0.01; ***p<0.001). […] FACS-purified ILC2s from WT mice challenged with rm-IL-33 with or without α7nAChR agonist as described in FIG. 3A were quantified by NanoString nCounter technology. Data range from −1 to +1 for the most reduced and most increased gene expression, respectively. (FIG. 5D) Expression of NF-κB p65 in isolated lung ILC2s from mice challenged with IL-33 with (dotted line) or without (thick line) α7nAChR agonist. The level of isotype-matched stain control is shown as a gray-filled histogram. (FIG. 5E) Expression of phosphorylated IKKα/β (Ser176/180) in isolated lung ILC2s stimulated with IL-33, with (dotted line) or without (thick line) α7nAChR agonist for 24 hours. The level of isotype-matched stain control is shown as a gray-filled histogram. (FIG. 5F) Mean fluorescence intensity of phosphorylated IKKα/β with or without α7nAChR agonist.
FIGS. 9A-9C: Effect of α7nAChR agonist on some marker expressions by ILC2s. A cohort of BALB/cByJ mice were intranasally challenged with rm-IL-33 (0.5 μg) with or without α7nAChR agonist (125 μg) for three consecutive days. Histogram and MFI of CD25 (FIG. 9A), CD127 (FIG. 9B) and ST2 (FIG. 9C) in isolated lung ILC2s. Data are representative of at least two independent experiments and are presented as means±SEM (n=4; Student's t test *, p<0.05).
Biotinylated anti-mouse lineage (CD3e (145-2C11), CD45R (RA3-3B2), Gr-1 (RB6-8C5), CD11c (N418), CD11b (M1/70), Ter119 (TER-119), NK1.1 (PK136), TCR-β (H57-597), TCR-γδ (GL3), and FcεRIα (MAR-1), Streptavidin-FITC, FITC anti-mouse CD3 (145-2C11), BV510 anti-mouse CD4 (RM4-5), APC-Cy7 anti-mouse CD25 (PC61), PE anti-mouse CD25 (PC61), BV421 anti-mouse CD25 (PC61), BV510 anti-mouse CD90.2 (53-2.1), APC anti-mouse CD127 (A7R34), PE-Cy7 anti-mouse CD127 (A7R34), FITC anti-mouse CD45 (30F-11), PE/Cy7 anti-mouse CD45 (30-F11), PE anti-mouse IL-5 (TRFK5), BV421 anti-mouse GATA3 (16E10A23), 7-AAD Viability staining solution, purchased from BioLegend (San Diego, Calif.). PE anti-mouse ST2 (IL-33R, RMST2-2), PerCP-eFluor710 anti-Mouse ST2 (RMST2-2), Streptavidin APC-eFluor780, Alexa Fluor647 labeled anti-IL-4 (clone 11B11), eFluor 450 anti-mouse CD45 (30F-11), eFluor450 anti-CD44 (clone IM7), eFluor-660 anti-mouse Ki-67 (SollA15), PE/Cy7 anti-mouse IL-13 (eBio13A), anti-mouse BCL-2 (10C4), were purchased from eBioscience. Alexa Fluor 488 anti-mouse p65-NF-κB (532301) was purchased from R&D Systems (dilution 1:50). Alexa Fluor 647 conjugated α-bungarotoxin (Invitrogen, San Diego, Calif.). PE anti-mouse Phospho-IKKα/β (Ser 176/180) (16A6) was purchased from Cell Signaling Technology (dilution 1:50). PE anti-rat α7nAChR (319) was purchased from Santa Cruz Biotechnology (dilution 1:50). This antibody has been used to identify this receptor previously in several studies^69. Lineage marker antibodies were used at the dilution of 1:400, unless mentioned otherwise other antibodies were used at the dilution of 1:200.
Intracellular staining was performed using BD Cytofix/Cytoperm kit (BD Bioscience, San Jose, Calif.) according to the manufacturer's instructions. For analysis of GATA3 and Ki-67 expression, freshly isolated cells were fixed and permeabilized using Fixation/Permeabilization buffer kit (eBioscience) according to the manufacturer's instructions and as previously described^70.

CN1CCCC1c1cccnc1 (stereo not shown) [nicotine]
AHR ([1]; HDM-induced asthma model): not suppressed
Th2 cytokines ([1]; HDM-induced asthma model): suppression
HDM-induced allergic lung inflammation ([1]; asthma model): attenuated

3-[(3E)-3-[(2,4-dimethoxyphenyl)methylidene]-5,6-dihydro-4H-pyridin-2-yl]pyridine [GTS-21]
expression of CD25, CD127, and ST2 by ILC2s (lung ILC2s): did not alter
